The numbers were not newly measured in patent US7887848B2, “Nutraceutical treatments for diabetic and non-diabetic wound healing” (Interhealth Nutraceuticals, Inc., priority 2006, dated 2011), which cites them from elsewhere.

Turning to `OO` [H2O2], under “H2O2 at strength of 3%”, the “beneficial effect on wounds” value is reported as “no beneficial effect”. Further, the dermal wound healing result (topical H2O2 (Roy et al. 2006)) was “facilitates dermal wound healing”.
